Data on 23 compounds can be found in patent publication US20230295087A1, “AGONISTS OF ROR GAMMAt” (BRISTOL-MYERS SQUIBB COMPANY, priority 2019, published 2023).

The test deals with T1, human RORgT (Homo sapiens, UniProt P51449).
T1 construct: expressed in transfected cells
T1 sequence (P51449 267-516): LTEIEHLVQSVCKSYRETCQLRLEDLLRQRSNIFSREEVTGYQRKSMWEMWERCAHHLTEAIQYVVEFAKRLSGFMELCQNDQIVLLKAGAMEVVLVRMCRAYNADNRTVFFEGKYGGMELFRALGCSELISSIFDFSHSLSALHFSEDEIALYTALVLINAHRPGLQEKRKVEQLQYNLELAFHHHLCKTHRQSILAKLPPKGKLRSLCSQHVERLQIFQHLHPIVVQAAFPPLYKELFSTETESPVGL
Nature of the test: RORgT Gal4 Luciferase Reporter Gene Assay. Conditions: engineered Jurkat cells overexpressing RORgT (LBD or full length) fused with Gal4 Luc reporter; 18 hours at 37° C.; luminescence. The format is cell-based. The gist of the method:
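Jurkat cells expressing Gal4 Luc with either RORgT LBD (aa267-516) or full-length human RORgT, 10,000 cells/well, treated with compound (40 µM to 0.67 nM final, 3-fold dilutions) for 18 h at 37° C. Steady-Glo luminescence read; inhibition of constitutive activity as % signal-window reduction relative to a control compound.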
`C[C@]1(C(=O)N2CC[C@@]3(S(=O)(=O)c4ccc(F)cc4)c4ccc(OCc5cc(Cl)ccc5Cl)cc4CC[C@@H]23)CC[C@H](C(=O)O)CC1` [Example 113, (1r,4r)-4-[(3aR,9bR)-7-[(2,5-dichlorophenyl)methoxy]-9b-(4-fluorobenzenesulfonyl)-1H,2H,3H,3aH,4H,5H,9bH-benzo[e]indole-3-carbonyl]-4-methylcyclohexane-1-carboxylic acid] gave an EC50 of 3.1 nM.
In the case of `O=C(O)[C@H]1CC[C@H](C(=O)N2CC[C@@]3(S(=O)(=O)c4ccc(F)cc4)c4ccc(OCc5ccncc5Cl)cc4CC[C@@H]23)CC1` [Example 114, (1r,4r)-4-[(3aR,9bR)-7-[(3-chloropyridin-4-yl)methoxy]-9b-(4-fluorobenzenesulfonyl)-1H,2H,3H,3aH,4H,5H,9bH-benzo[e]indole-3-carbonyl]cyclohexane-1-carboxylic acid], the EC50 amounted to 53 nM. Against the preceding compound, the EC50 is about 17-fold higher.
In turn, `O=C(O)[C@H]1CC[C@H](C(=O)N2CC[C@@]3(S(=O)(=O)c4ccc(F)cc4)c4ccc(Oc5c(F)ccnc5F)cc4CC[C@@H]23)CC1` [Example 115, (1r,4r)-4-[(3aR,9bR)-7-[(2,4-difluoropyridin-3-yl)oxy]-9b-(4-fluorobenzenesulfonyl)-1H,2H,3H,3aH,4H,5H,9bH-benzo[e]indole-3-carbonyl]cyclohexane-1-carboxylic acid] came in with an EC50 of 25 nM.
With `O=C(O)[C@H]1CC[C@H](C(=O)N2CC[C@@]3(S(=O)(=O)c4ccc(F)cc4)c4ccc(Oc5cccnc5F)cc4CC[C@@H]23)CC1` [Example 116, (1r,4r)-4-[(3aR,9bR)-9b-(4-fluorobenzenesulfonyl)-7-[(2-fluoropyridin-3-yl)oxy]-1H,2H,3H,3aH,4H,5H,9bH-benzo[e]indole-3-carbonyl]cyclohexane-1-carboxylic acid] the figure was 51 nM; with `O=C(C1CCS(=O)(=O)CC1)N1CC[C@@]2(S(=O)(=O)c3ccc(F)cc3)c3ccc(Oc4cccnc4F)cc3CC[C@@H]12` [Example 117, 4-[(3aR,9bR)-9b-(4-fluorobenzenesulfonyl)-7-[(2-fluoropyridin-3-yl)oxy]-1H,2H,3H,3aH,4H,5H,9bH-benzo[e]indole-3-carbonyl]-1λ^6-thiane-1,1-dione], 7.1 nM; with `O=C(C1CCS(=O)(=O)CC1)N1CC[C@@]2(S(=O)(=O)c3ccc(F)cc3)c3ccc(Sc4c(Cl)cccc4Cl)cc3CC[C@@H]12` [Example 118, 4-[(3aR,9bR)-7-[(2,6-dichlorophenyl)sulfanyl]-9b-(4-fluorobenzenesulfonyl)-1H,2H,3H,3aH,4H,5H,9bH-benzo[e]indole-3-carbonyl]-1λ^6-thiane-1,1-dione], 1.3 nM.
Regarding `O=C(O)[C@H]1CC[C@H](C(=O)N2CC[C@@]3(S(=O)(=O)c4ccc(F)cc4)c4ccc(Sc5c(Cl)cccc5Cl)cc4CC[C@@H]23)CC1` [Example 119, (1r,4r)-4-[(3aR,9bR)-7-[(2,6-dichlorophenyl)sulfanyl]-9b-(4-fluorobenzenesulfonyl)-1H,2H,3H,3aH,4H,5H,9bH-benzo[e]indole-3-carbonyl]cyclohexane-1-carboxylic acid], the EC50 amounted to 1.4 nM.
With `O=C(O)[C@H]1CC[C@H](C(=O)N2CC[C@@]3(S(=O)(=O)c4ccc(F)cc4)c4ccc(OCc5ccccc5)cc4CC[C@@H]23)CC1` [Example 120, (1r,4r)-4-[(3aR,9bR)-7-(benzyloxy)-9b-(4-fluorobenzenesulfonyl)-1H,2H,3H,3aH,4H,5H,9bH-benzo[e]indole-3-carbonyl]cyclohexane-1-carboxylic acid], a half-maximal response (EC50) required 18 nM.
In the case of `O=C(O)[C@H]1CC[C@H](C(=O)N2CC[C@@]3(S(=O)(=O)c4ccc(F)cc4)c4ccc(OCc5c(Cl)cccc5Cl)cc4CC[C@@H]23)CC1` [Example 121, (1r,4r)-4-[(3aR,9bR)-7-[(2,6-dichlorophenyl)methoxy]-9b-(4-fluorobenzenesulfonyl)-1H,2H,3H,3aH,4H,5H,9bH-benzo[e]indole-3-carbonyl]cyclohexane-1-carboxylic acid] it was 9.7 nM; in that of `NS(=O)(=O)CC(=O)N1CC[C@@]2(S(=O)(=O)c3ccc(F)cc3)c3ccc(OCc4c(Cl)cccc4Cl)cc3CC[C@@H]12` [Example 122, 2-[(3aR,9bR)-7-[(2,6-dichlorophenyl)methoxy]-9b-(4-fluorobenzenesulfonyl)-1H,2H,3H,3aH,4H,5H,9bH-benzo[e]indol-3-yl]-2-oxoethane-1-sulfonamide], 127 nM; in that of `O=C(C1CCS(=O)(=O)CC1)N1CC[C@@]2(S(=O)(=O)c3ccccc3)c3ccc(OCc4c(F)cccc4Cl)cc3CC[C@@H]12` [Example 123, 4-[(3aR,9bR)-9b-(benzenesulfonyl)-7-[(2-chloro-6-fluorophenyl)methoxy]-1H,2H,3H,3aH,4H,5H,9bH-benzo[e]indole-3-carbonyl]-1λ^6-thiane-1,1-dione], 7.1 nM.
With `Cc1ccccc1COc1ccc2c(c1)CC[C@H]1N(C(=O)C3CCS(=O)(=O)CC3)CC[C@@]21S(=O)(=O)c1ccccc1` [Example 124, 4-[(3aR,9bR)-9b-(benzenesulfonyl)-7-[(2-methylphenyl)methoxy]-1H,2H,3H,3aH,4H,5H,9bH-benzo[e]indole-3-carbonyl]-1λ^6-thiane-1,1-dione] the figure was 34 nM; with `O=C(C1CCS(=O)(=O)CC1)N1CC[C@@]2(S(=O)(=O)c3ccccc3)c3ccc(OCC4CCCCC4)cc3CC[C@@H]12` [Example 125, 4-[(3aR,9bR)-9b-(benzenesulfonyl)-7-(cyclohexylmethoxy)-1H,2H,3H,3aH,4H,5H,9bH-benzo[e]indole-3-carbonyl]-1λ^6-thiane-1,1-dione], 24 nM.
In turn, `O=C(C1CCS(=O)(=O)CC1)N1CC[C@@]2(S(=O)(=O)c3ccccc3)c3ccc(OCc4c(Cl)cccc4Cl)cc3CC[C@@H]12` [Example 126, 4-[(3aR,9bR)-9b-(benzenesulfonyl)-7-[(2,6-dichlorophenyl)methoxy]-1H,2H,3H,3aH,4H,5H,9bH-benzo[e]indole-3-carbonyl]-1λ^6-thiane-1,1-dione] returned an EC50 of 8.5 nM.
In the case of `O=C(C1CCS(=O)(=O)CC1)N1CC[C@@]2(S(=O)(=O)c3ccccc3)c3ccc(OCc4ccccc4Cl)cc3CC[C@@H]12` [Example 127, 4-[(3aR,9bR)-9b-(benzenesulfonyl)-7-[(2-chlorophenyl)methoxy]-1H,2H,3H,3aH,4H,5H,9bH-benzo[e]indole-3-carbonyl]-1λ^6-thiane-1,1-dione] it was 12 nM.
As to `O=C(C1CCS(=O)(=O)CC1)N1CC[C@@]2(S(=O)(=O)c3ccc(F)cc3)c3ccc(OCc4c(Cl)cccc4Cl)cc3CC[C@@H]12` [Example 128, 4-[(3aR,9bR)-7-[(2,6-dichlorophenyl)methoxy]-9b-(4-fluorobenzenesulfonyl)-1H,2H,3H,3aH,4H,5H,9bH-benzo[e]indole-3-carbonyl]-1λ^6-thiane-1,1-dione], the EC50 came to 13 nM.
On to `O=C(C1CCS(=O)(=O)CC1)N1CC[C@@]2(S(=O)(=O)c3ccccc3)c3ccc(OCc4cc(Cl)ccc4Cl)cc3CC[C@@H]12` [Example 129, 4-[(3aR,9bR)-9b-(benzenesulfonyl)-7-[(2,5-dichlorophenyl)methoxy]-1H,2H,3H,3aH,4H,5H,9bH-benzo[e]indole-3-carbonyl]-1λ^6-thiane-1,1-dione], for which the midpoint of the response, the EC50, lay at 17 nM.
In turn, `O=C(C1CCS(=O)(=O)CC1)N1CC[C@@]2(S(=O)(=O)c3ccccc3)c3ccc(OCc4cc(F)ccc4Cl)cc3CC[C@@H]12` [Example 130, 4-[(3aR,9bR)-9b-(benzenesulfonyl)-7-[(2-chloro-5-fluorophenyl)methoxy]-1H,2H,3H,3aH,4H,5H,9bH-benzo[e]indole-3-carbonyl]-1λ^6-thiane-1,1-dione] registered an EC50 of 12 nM.
With `O=C(C1CCS(=O)(=O)CC1)N1CC[C@@]2(S(=O)(=O)c3ccccc3)c3ccc(OCc4c(F)ccc(F)c4Cl)cc3CC[C@@H]12` [Example 131, 4-[(3aR,9bR)-9b-(benzenesulfonyl)-7-[(2-chloro-3,6-difluorophenyl)methoxy]-1H,2H,3H,3aH,4H,5H,9bH-benzo[e]indole-3-carbonyl]-1λ^6-thiane-1,1-dione] the figure was 8.6 nM; with `O=C(C1CCS(=O)(=O)CC1)N1CC[C@@]2(S(=O)(=O)c3ccccc3)c3ccc(OCc4c(F)cccc4C(F)(F)F)cc3CC[C@@H]12` [Example 132, 4-[(3aR,9bR)-9b-(benzenesulfonyl)-7-{[2-fluoro-6-(trifluoromethyl)phenyl]methoxy}-1H,2H,3H,3aH,4H,5H,9bH-benzo[e]indole-3-carbonyl]-1λ^6-thiane-1,1-dione], 9.5 nM.
In the case of `O=C(C1CCS(=O)(=O)CC1)N1CC[C@@]2(S(=O)(=O)c3ccccc3)c3ccc(OCc4c(F)cccc4F)cc3CC[C@@H]12` [Example 133, 4-[(3aR,9bR)-9b-(benzenesulfonyl)-7-[(2,6-difluorophenyl)methoxy] -1H,2H,3H,3aH,4H,5H,9bH-benzo[e]indole-3-carbonyl]-1λ^6-thiane-1,1-dione], a half-maximal effect (EC50) was put at 17 nM.
`O=C(C1CCS(=O)(=O)CC1)N1CC[C@@]2(S(=O)(=O)c3ccccc3)c3ccc(OCc4ccc(F)cc4Cl)cc3CC[C@@H]12` [Example 134, 4-[(3aR,9bR)-9b-(benzenesulfonyl)-7-[(2-chloro-4-fluorophenyl)methoxy]-1H,2H,3H,3aH,4H,5H,9bH-benzo[e]indole-3-carbonyl]-1λ^6-thiane-1,1-dione]: the EC50 is 22 nM. The EC50 values of the last two compounds are within 1.5-fold of each other.
`O=C(C1CCS(=O)(=O)C1)N1CC[C@@]2(S(=O)(=O)c3ccccc3)c3ccc(OCc4c(F)cccc4Cl)cc3CC[C@@H]12` (stereo partly drawn) [Example 135, 3-[(3aR,9bR)-9b-(benzenesulfonyl)-7-[(2-chloro-6-fluorophenyl)methoxy]-1H,2H,3H,3aH,4H,5H,9bH-benzo[e]indole-3-carbonyl]-1λ^6-thiolane-1,1-dione]: the EC50 is 9.7 nM.
